These are literature values, as cited in patent publication US9505976B2, “Excitation-dependent fluorescent organic nanoparticles” (National Kaohsiung Normal University, priority 2013, dated 2016).

For the data set the following is noted: in ethanol.

As to `CCN(CC)c1ccc2c(C)cc(=O)oc2c1` [coumarin 1, 7-diethylamino-4-methylcoumarin], the “quantum yield of reference” value is 73%.
